The values that follow come from patent US20220009920A1 (GB005, Inc., priority 2020, published 2022).

Common to all, as to experiment: Large panel kinase profiling
Holding throughout (format): biochemical
Common to all, as to settings: 1 μM test article, 1 mM ATP

One assay deals with T1, CDC42BPA/MRCKA (Homo sapiens, UniProt Q5VT25).
T1 construct: AssayQuant Technologies, Inc. (ran the panel)
The procedure: (§1) Large panel kinase profiling was performed at AssayQuant Technologies, Inc. 260 Cedar Hill Street, Marlborough, Mass. 01752 using the PhosphoSens® CSox-Sensor platform using 1 μM test article concentration and 1 mM ATP concentration (www.assayquant.com). Reactions were run in Corning, half-area 96-well, white flat round bottom polystyrene NBS microplates (Cat. #3642) after sealing using optically-clear adhesive film (TopSealA-Plus plate seal, PerkinElmer), applied with either a roller or a paddle to eliminate evaporation and resulting drift. The standard total reaction volume was 50 μL. All experiments were ran at 30° C. to control for fluctuations in ambient temperature. Plates were read from the top in kinetic mode (readings taken every 1 min), monitoring fluorescence intensity with filters using Ex 360 nm and Em 485 nm and a band width of 40 and 20 nm, respectively, and a gain of 80. Data analysis was performed using either Graphpad Prism or Gene Data Screener software.

A further assay deals with T2, EPHA8 (Homo sapiens, UniProt P29322).
T2 sequence (P29322 28-1005): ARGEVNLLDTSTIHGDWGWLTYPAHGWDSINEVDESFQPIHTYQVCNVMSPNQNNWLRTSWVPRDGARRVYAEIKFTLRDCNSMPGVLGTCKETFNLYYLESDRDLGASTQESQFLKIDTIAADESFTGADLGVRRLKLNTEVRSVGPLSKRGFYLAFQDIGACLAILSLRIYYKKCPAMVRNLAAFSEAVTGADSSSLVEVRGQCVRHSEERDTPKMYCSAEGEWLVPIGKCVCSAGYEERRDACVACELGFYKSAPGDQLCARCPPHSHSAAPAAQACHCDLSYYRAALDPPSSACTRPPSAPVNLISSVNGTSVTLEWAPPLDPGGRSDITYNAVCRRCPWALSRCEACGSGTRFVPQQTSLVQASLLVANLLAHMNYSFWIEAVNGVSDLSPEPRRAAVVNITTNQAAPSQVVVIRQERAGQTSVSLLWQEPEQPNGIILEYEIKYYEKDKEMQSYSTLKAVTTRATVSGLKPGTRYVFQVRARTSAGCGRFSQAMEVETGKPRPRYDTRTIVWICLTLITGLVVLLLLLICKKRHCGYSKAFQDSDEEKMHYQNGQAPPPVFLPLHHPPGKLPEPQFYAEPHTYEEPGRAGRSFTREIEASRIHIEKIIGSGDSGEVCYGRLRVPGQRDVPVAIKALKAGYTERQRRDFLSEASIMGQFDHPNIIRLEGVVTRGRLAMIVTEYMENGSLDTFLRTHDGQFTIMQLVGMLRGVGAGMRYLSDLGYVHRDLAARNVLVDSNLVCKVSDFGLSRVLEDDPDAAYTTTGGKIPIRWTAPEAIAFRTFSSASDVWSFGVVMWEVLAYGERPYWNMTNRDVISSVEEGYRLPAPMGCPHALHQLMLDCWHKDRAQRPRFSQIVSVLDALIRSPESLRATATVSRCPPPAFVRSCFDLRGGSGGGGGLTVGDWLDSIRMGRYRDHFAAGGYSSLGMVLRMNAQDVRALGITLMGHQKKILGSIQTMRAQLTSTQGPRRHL
The protocol:
as §1

Another assay has as its target T3, NEK9 (Homo sapiens, UniProt Q8TD19).
T3 construct: AssayQuant Technologies, Inc. (assay service)
T3 sequence (Q8TD19 1-979): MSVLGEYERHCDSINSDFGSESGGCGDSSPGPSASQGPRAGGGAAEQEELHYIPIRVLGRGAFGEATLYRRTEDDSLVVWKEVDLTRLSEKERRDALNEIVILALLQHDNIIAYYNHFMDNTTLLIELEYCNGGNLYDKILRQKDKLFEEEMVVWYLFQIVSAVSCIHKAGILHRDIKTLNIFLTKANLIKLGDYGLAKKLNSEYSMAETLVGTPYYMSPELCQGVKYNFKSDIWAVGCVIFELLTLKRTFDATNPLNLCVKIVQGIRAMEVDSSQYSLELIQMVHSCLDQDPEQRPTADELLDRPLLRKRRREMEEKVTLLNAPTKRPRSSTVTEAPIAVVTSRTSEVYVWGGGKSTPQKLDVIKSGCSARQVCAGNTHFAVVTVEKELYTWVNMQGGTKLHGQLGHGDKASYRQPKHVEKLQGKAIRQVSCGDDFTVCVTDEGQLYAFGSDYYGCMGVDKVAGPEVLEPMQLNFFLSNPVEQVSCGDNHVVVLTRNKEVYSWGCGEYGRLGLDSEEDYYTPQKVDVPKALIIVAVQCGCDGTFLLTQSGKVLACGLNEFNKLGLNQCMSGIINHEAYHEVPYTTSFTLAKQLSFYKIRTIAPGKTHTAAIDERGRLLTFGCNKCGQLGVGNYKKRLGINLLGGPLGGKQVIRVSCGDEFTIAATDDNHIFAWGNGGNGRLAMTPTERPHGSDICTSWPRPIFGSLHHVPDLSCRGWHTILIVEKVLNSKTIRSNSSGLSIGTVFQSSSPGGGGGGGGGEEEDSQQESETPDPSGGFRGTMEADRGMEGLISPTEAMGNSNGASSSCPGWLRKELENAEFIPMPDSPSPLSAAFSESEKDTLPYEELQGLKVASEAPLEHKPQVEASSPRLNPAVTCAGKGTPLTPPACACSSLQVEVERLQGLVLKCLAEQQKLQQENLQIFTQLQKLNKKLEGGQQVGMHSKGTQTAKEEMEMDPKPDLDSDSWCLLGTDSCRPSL
The procedure: as §1

SMILES strings stand for the structures.

T1 sequence (Q5VT25 whole entry): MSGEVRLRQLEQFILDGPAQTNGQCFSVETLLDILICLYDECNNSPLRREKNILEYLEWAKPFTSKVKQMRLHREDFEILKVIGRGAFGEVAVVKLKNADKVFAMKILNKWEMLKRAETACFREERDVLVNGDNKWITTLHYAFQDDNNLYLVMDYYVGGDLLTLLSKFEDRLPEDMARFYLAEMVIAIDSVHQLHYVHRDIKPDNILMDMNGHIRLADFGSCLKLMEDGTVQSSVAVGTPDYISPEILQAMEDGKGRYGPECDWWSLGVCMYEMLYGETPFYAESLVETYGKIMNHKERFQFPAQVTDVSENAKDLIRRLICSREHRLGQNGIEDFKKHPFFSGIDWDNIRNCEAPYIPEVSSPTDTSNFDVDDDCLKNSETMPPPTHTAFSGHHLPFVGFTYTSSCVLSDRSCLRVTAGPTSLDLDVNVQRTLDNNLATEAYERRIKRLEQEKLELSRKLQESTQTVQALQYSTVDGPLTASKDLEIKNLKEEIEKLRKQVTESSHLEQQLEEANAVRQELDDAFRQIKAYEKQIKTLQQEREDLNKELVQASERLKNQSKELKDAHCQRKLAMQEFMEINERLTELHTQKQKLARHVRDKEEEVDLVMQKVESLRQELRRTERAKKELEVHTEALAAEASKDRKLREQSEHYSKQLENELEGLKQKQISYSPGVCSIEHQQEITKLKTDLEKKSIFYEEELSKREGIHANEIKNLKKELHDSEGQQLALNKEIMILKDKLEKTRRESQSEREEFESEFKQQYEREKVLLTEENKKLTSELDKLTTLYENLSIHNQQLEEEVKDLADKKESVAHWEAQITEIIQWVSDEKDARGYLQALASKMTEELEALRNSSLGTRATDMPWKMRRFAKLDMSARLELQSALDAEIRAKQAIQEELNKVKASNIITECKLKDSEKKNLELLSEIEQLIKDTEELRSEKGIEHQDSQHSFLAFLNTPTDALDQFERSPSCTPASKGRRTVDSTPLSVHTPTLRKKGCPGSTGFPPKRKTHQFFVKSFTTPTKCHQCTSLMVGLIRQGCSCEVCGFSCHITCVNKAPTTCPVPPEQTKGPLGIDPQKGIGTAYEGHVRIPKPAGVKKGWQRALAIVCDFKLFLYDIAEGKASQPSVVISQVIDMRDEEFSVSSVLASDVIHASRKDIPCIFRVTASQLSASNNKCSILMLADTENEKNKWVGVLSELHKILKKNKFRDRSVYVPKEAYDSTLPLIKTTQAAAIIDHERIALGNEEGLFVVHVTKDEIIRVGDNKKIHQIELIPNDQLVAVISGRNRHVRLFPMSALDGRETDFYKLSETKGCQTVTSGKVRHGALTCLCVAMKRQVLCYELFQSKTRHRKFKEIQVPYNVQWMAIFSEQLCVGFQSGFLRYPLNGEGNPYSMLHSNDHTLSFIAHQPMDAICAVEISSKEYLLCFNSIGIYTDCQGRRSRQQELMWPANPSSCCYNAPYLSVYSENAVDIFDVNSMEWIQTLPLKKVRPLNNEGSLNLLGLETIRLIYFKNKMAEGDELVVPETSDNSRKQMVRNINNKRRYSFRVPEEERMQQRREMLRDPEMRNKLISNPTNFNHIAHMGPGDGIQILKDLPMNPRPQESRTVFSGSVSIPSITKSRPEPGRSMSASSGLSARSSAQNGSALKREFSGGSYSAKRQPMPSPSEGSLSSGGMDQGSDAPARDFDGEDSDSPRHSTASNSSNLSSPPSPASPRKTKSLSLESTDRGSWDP

As a reminder, the inhibition is the change of the read-out against control, counted positive when it falls. `C=CC(=O)N1CCC[C@@H](c2c(F)cc(C(N)=O)c3[nH]c4c(c23)CCC4)C1` [Compound 10-2, (S)-8-(1-acryloylpiperidin-3-yl)-7-fluoro-1,2,3,4-tetrahydrocyclo-penta[b]indole-5-carboxamide]: the values for the inhibition at 1 µM on CDC42BPA/MRCKA, against EPHA8 and against NEK9 were 1.8%, -19.1% and 2.4%, respectively.
For the molecule `C=CC(=O)N1CCCC(c2c(F)cc(C(N)=O)c3[nH]c4c(c23)CCCCC4)C1` (single isomer, unassigned) [Compound 5-6], the inhibition at 1 µM at CDC42BPA/MRCKA is -30.9%; against EPHA8, 10%; on NEK9 it was -9.3%.
With `C=CC(=O)N1CCC[C@@H](c2c(F)cc(C(N)=O)c3[nH]c4c(c23)CC2(CC4)CC2)C1` [Compound 6-2, (S)-5-(1-acryloylpiperidin-3-yl)-6-fluoro-1,2,4,9-tetrahydrospiro[carbazole-3,1′-cyclopropane]-8-carboxamide], the results for the inhibition at 1 µM against CDC42BPA/MRCKA, on EPHA8 and on NEK9 were -16.2%, -15.3% and 18%, respectively.
